Laboratory results: patent US20210401987A1, “METHODS AND COMPOSITIONS FOR TREATING INFLAMMATORY AND FIBROTIC PULMONARY DISORDERS” (University of Houston System, priority 2020, published 2021)

Columns and labels:
STAT3 = STAT3 (Homo sapiens, UniProt P40763); details: cited from earlier work
ERBB2 = details: cited from earlier work
[1] = test system: human airway microvasculature endothelial cells; assay: Endothelial cell activation assessed by expression of Vcam1 (CD106); format: cell-based; details: IL-13 challenge of human lung endothelial cells
Text: Given the robust inflammatory response triggered by xenografts of COPD clone libraries, the inventors asked if this inflammatory activity was a function of one or more of the constituent clone types. Using pathway enrichment analysis algorithms for the gene expression profiles of the four clone types, the multiple inflammatory pathways highlighted in clones of Cluster 4 was striking including Antigen Presentation, Interferon Signaling, Graft-vs-Host responses, and Dendritic Cell Maturation among others, and their relative absence from clones of Clusters 1, 2, and 3 (FIG. 5A; FIG. 12A). The inventors tested media conditioned by clones of Clusters 1-4 for their ability to trigger phase I and II activation of human airway microvasculature endothelial cells, an essential step in leukocyte recruitment (Filippi, 2016). […] In this same assay media conditioned by Cluster 2 (GCM) or Cluster 3 (SCM) clones, respectively, yielded 4- and 10-fold inductions of VCAM1, and while media from Cluster 4 (iSCM) clones induced Vcam1 by 60-fold (FIG. 12B).

Sequence of STAT3 (P40763 whole entry): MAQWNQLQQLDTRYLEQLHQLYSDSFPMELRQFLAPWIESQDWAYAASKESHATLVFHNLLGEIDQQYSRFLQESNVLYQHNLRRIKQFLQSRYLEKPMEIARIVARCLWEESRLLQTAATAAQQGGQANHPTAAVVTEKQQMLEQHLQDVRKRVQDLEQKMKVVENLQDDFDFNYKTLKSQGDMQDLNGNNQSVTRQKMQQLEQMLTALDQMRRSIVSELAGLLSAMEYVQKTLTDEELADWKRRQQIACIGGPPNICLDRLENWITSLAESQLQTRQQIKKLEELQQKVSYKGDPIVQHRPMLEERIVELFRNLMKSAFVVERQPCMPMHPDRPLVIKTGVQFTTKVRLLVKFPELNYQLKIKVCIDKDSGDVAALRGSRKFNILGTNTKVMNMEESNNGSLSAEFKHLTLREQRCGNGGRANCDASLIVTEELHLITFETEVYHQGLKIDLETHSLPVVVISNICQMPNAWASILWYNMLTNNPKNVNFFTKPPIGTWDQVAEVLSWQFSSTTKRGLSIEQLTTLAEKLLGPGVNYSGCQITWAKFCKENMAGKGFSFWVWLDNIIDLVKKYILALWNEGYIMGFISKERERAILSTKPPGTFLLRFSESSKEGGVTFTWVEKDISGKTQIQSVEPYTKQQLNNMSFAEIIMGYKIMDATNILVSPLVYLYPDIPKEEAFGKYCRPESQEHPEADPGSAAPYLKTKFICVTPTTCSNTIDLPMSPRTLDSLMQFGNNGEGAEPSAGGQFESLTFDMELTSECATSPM

Molecule: O=[N+]([O-])c1ccc2c(c1)S(=O)(=O)C=C2 [Stattic]
- IC50 (STAT3; cell-free assays, read-out: IC50 of STAT3 activation and nuclear translocation): 5.1 µM
- selectivity over STAT1 (STAT3): highly selectivity over STAT1

Molecule: C=CC(=O)Nc1cccc(Sc2nc(Nc3ccc(N4CCN(C)CC4)cc3)ncc2Cl)c1 [WZ8040]
- inhibition of ERBB2 phosphorylation (ERBB2): does not inhibit

Molecule: IL-13: Human IL-13 Recombinant Protein
- induction of Vcam1 [1]: 30 fold
